# Assay results: ChEMBL document CHEMBL2086254, “Synthesis and identification of novel indolo[2,3-a]pyrimido[5,4-c]carbazoles as a new class of anti-cancer agents” (Eur J Med Chem, 2012)
# How the values were obtained:
# Type in all cases: functional
# SNB-75 = assay: Cytotoxicity against human SNB75 cells assessed as cell growth at 10 uM after 48 hrs by SRB assay relative to control; details: SNB-75, 48 h, read-out: Activity
# RPMI-8226 = assay: Cytotoxicity against human RPMI8226 cells assessed as cell growth at 10 uM after 48 hrs by SRB assay relative to control; details: RPMI-8226, 48 h, read-out: Activity
# MDA-MB-435 = assay: Cytotoxicity against human MDA-MB-435 cells assessed cell growth at 10 uM after 48 hrs by SRB assay relative to control
# NCI-H23 = assay: Cytotoxicity against human NCI-H23 cells assessed as cell growth at 10 uM after 48 hrs by SRB assay relative to control; details: NCI-H23, 48 h, read-out: Activity
# DU-145 = assay: Cytotoxicity against human DU145 cells assessed as cell growth at 10 uM after 48 hrs by SRB assay relative to control; details: DU-145, 48 h, read-out: Activity
# [1] = Cytotoxicity against human Hs 578T cells assessed as cell growth at 10 uM after 48 hrs by SRB assay relative to control; details: read-out: Activity
# HCT-116 = assay: Cytotoxicity against human HCT116 cells assessed as cell growth at 10 uM after 48 hrs by SRB assay relative to control; details: HCT-116, 48 h, read-out: Activity
# M14 = assay: Cytotoxicity against human M14 cells assessed as cell growth at 10 uM after 48 hrs by SRB assay relative to control; details: M14, 48 h, read-out: Activity
# SK-MEL-28 = assay: Cytotoxicity against human SK-MEL-28 cells assessed as cell growth at 10 uM after 48 hrs by SRB assay relative to control; details: SK-MEL-28, 48 h, read-out: Activity
# NCI-H522 = assay: Cytotoxicity against human NCI-H522 cells assessed as cell growth at 10 uM after 48 hrs by SRB assay relative to control; details: NCI-H522, 48 h, read-out: Activity
# SK-MEL-2 = assay: Cytotoxicity against human SK-MEL-2 cells assessed as cell growth at 10 uM after 48 hrs by SRB assay relative to control; details: SK-MEL-2, 48 h, read-out: Activity
# SNB-19 = assay: Cytotoxicity against human SNB19 cells assessed as cell growth at 10 uM after 48 hrs by SRB assay relative to control; details: SNB-19, 48 h, read-out: Activity
# NCI-H460 = assay: Cytotoxicity against human NCI-H460 cells assessed as cell growth at 10 uM after 48 hrs by SRB assay relative to control; details: NCI-H460, 48 h, read-out: Activity
# SW-620 = assay: Cytotoxicity against human SW620 cells assessed as cell growth at 10 uM after 48 hrs by SRB assay relative to control; details: SW-620, 48 h, read-out: Activity
# SF-268 = assay: Cytotoxicity against human SF268 cells assessed as cell growth at 10 uM after 48 hrs by SRB assay relative to control; details: SF-268, 48 h, read-out: Activity
# TK-10 = assay: Cytotoxicity against human TK10 cells assessed as cell growth at 10 uM after 48 hrs by SRB assay relative to control; details: TK-10, 48 h, read-out: Activity
# Malme-3M = assay: Cytotoxicity against human MALME-3M cells assessed as cell growth at 10 uM after 48 hrs by SRB assay relative to control; details: read-out: Activity
# NCI-H226 = assay: Cytotoxicity against human NCI-H226 cells assessed as cell growth at 10 uM after 48 hrs by SRB assay relative to control; details: NCI-H226, 48 h, read-out: Activity
# HCC 2998 = assay: Cytotoxicity against human HCC2998 cells assessed as cell growth at 10 uM after 48 hrs by SRB assay relative to control; details: HCC 2998, 48 h, read-out: Activity
# PC-3 = assay: Cytotoxicity against human PC3 cells assessed as cell growth at 10 uM after 48 hrs by SRB assay relative to control; details: PC-3, 48 h, read-out: Activity
# UACC-62 = assay: Cytotoxicity against human UACC62 cells assessed as cell growth at 10 uM after 48 hrs by SRB assay relative to control; details: UACC-62, 48 h, read-out: Activity
# K562 = assay: Cytotoxicity against human K562 cells assessed as cell growth at 10 uM after 48 hrs by SRB assay relative to control; details: K562, 48 h, read-out: Activity
# A549 = assay: Cytotoxicity against human A549 cells assessed as cell growth at 10 uM after 48 hrs by SRB assay relative to control; details: A549, 48 h, read-out: Activity
# A498 = assay: Cytotoxicity against human A498 cells assessed as cell growth at 10 uM after 48 hrs by SRB assay relative to control; details: A498, 48 h, read-out: Activity
# RXF 393 = assay: Cytotoxicity against human RXF393 cells assessed as cell growth at 10 uM after 48 hrs by SRB assay relative to control; details: RXF 393, 48 h, read-out: Activity
# SK-MEL-5 = assay: Cytotoxicity against human SK-MEL-5 cells assessed as cell growth at 10 uM after 48 hrs by SRB assay relative to control; details: SK-MEL-5, 48 h, read-out: Activity
# SF-295 = assay: Cytotoxicity against human SF295 cells assessed as cell growth at 10 uM after 48 hrs by SRB assay relative to control; details: SF-295, 48 h, read-out: Activity
# ACHN = assay: Cytotoxicity against human ACHN cells assessed as cell growth at 10 uM after 48 hrs by SRB assay relative to control; details: read-out: Activity
# NCI/ADR-RES = assay: Cytotoxicity against human NCI/ADR-RES cells assessed as cell growth at 10 uM after 48 hrs by SRB assay relative to control; details: read-out: Activity
# UACC-257 = assay: Cytotoxicity against human UACC257 cells assessed as cell growth at 10 uM after 48 hrs by SRB assay relative to control; details: UACC-257, 48 h, read-out: Activity
# SK-OV-3 = assay: Cytotoxicity against human SKOV3 cells assessed as cell growth at 10 uM after 48 hrs by SRB assay relative to control; details: SK-OV-3, 48 h, read-out: Activity
# EKVX = assay: Cytotoxicity against human EKVX cells assessed as cell growth at 10 uM after 48 hrs by SRB assay relative to control; details: read-out: Activity
# T47D = assay: Cytotoxicity against human T47D cells assessed as cell growth at 10 uM after 48 hrs by SRB assay relative to control; details: read-out: Activity
# OVCAR-8 = assay: Cytotoxicity against human OVCAR8 cells assessed as cell growth at 10 uM after 48 hrs by SRB assay relative to control; details: OVCAR-8, 48 h, read-out: Activity
# U-251 = assay: Cytotoxicity against human U251 cells assessed as cell growth at 10 uM after 48 hrs by SRB assay relative to control; details: U-251, 48 h, read-out: Activity
SMILES,growth at 10 µM (SNB-75),growth at 10 µM (RPMI-8226),Activity (MDA-MB-435),growth at 10 µM (NCI-H23),growth at 10 µM (DU-145),growth at 10 µM [1],growth at 10 µM (HCT-116),growth at 10 µM (M14),growth at 10 µM (SK-MEL-28),growth at 10 µM (NCI-H522),growth at 10 µM (SK-MEL-2),growth at 10 µM (SNB-19),growth at 10 µM (NCI-H460),growth at 10 µM (SW-620),growth at 10 µM (SF-268),growth at 10 µM (TK-10),growth at 10 µM (Malme-3M),growth at 10 µM (NCI-H226),growth at 10 µM (HCC 2998),growth at 10 µM (PC-3),also measured
Cn1cc(-c2nc(N)[nH]c(=O)c2-c2cn(C)c3ccccc23)c2ccccc21,103%,111%,109.77%,95%,122%,103%,99%,97.6%,118%,86.7%,102%,111%,90.7%,94%,109%,82.3%,112%,91%,120%,89.7%,growth at 10 µM (UACC-62): 96.1%; growth at 10 µM (K562): 111%; growth at 10 µM (A549): 101%; growth at 10 µM (A498): 112%; growth at 10 µM (RXF 393): 131%; growth at 10 µM (SK-MEL-5): 101%; growth at 10 µM (SF-295): 90.7%; growth at 10 µM (ACHN): 98.5%; growth at 10 µM (NCI/ADR-RES): 108%; growth at 10 µM (UACC-257): 95.6%; growth at 10 µM (SK-OV-3): 95.8%; growth at 10 µM (EKVX): 105%; growth at 10 µM (T47D): 93.8%; growth at 10 µM (OVCAR-8): 97.5%; growth at 10 µM (U-251): 100%
Cn1cc(-c2[nH]c(=O)[nH]c(=O)c2-c2cn(C)c3ccccc23)c2ccccc21,70.2%,98.9%,73.39%,91.4%,115%,105%,91.7%,89.8%,103%,93.1%,118%,109%,88.2%,88.8%,106%,94.5%,98.6%,86.2%,109%,86.1%,growth at 10 µM (UACC-62): 88.3%; growth at 10 µM (K562): 93.8%; growth at 10 µM (A549): 96.9%; growth at 10 µM (A498): 112%; growth at 10 µM (RXF 393): 111%; growth at 10 µM (SK-MEL-5): 101%; growth at 10 µM (SF-295): 97.1%; growth at 10 µM (ACHN): 92.5%; growth at 10 µM (NCI/ADR-RES): 103%; growth at 10 µM (UACC-257): 82.1%; growth at 10 µM (SK-OV-3): 96.8%; growth at 10 µM (EKVX): 68.7%; growth at 10 µM (T47D): 82.4%; growth at 10 µM (OVCAR-8): 98.1%; growth at 10 µM (U-251): 113%
